Test results taken from a melting point compilation (Tetko et al.; mined from patent text by program, amines drawn as free bases though some values may be those of a salt).

| Structure (SMILES) | melting point |
| --- | --- |
| Cc1noc(NS(=O)(=O)c2c(C(=O)c3ccc4c(c3)OCO4)sc3ncccc23)c1Cl | 75 to 90 °C |
| O=C(NCCSCc1cccc(NC(=O)C2CC2)c1)c1c(Cl)cccc1Cl | 46 to 47 °C |
| CSC(=S)NN=Cc1nc(Cc2ccccc2)[nH]c1C | 207 to 210 °C |
| COc1cccc2c1CC1c3c(cc(OC)c(OC)c3-2)CCN1C (configuration not stated) | 184 to 185 °C |
| CS(=O)(=O)Nc1ccc(CCN2CCN(C(=O)c3ccc4[nH]ccc4c3)CC2)cc1 | 94 to 97 °C |
| CCCCOCCOc1ccc(-c2ccc3c(c2)C=C(C(=O)O)CCN3c2csc(C)n2)cc1 | 155 to 158 °C |
| CCn1ncc2c3[nH]cnc(=O)c3cnc21 | 320 to 322 °C |
| C[Si](C)(C)c1ccc(NC(=O)NC(=O)c2c(F)cccc2F)cc1 | 187 to 189 °C |
| N#Cc1c(Cc2ccccc2)n[nH]c1N | 183 to 185 °C |
| CCOc1ccc(C=CC(=O)c2c(O)cc(OC)cc2OC)cc1 | 136 °C |
| O=C(Nc1ccccc1O)c1ccc(CS(=O)(=O)c2ccc(O)cc2)cc1 | 250 °C |
| CC(C)Cc1ccccc1Sc1c(O)cc(-c2cccc(-c3ccccc3)c2)oc1=O | 187 to 188 °C |
| O=C(Nc1ccc(-n2nc(C(F)(F)F)cc2C(F)(F)F)c(C(F)(F)F)c1)c1ccc(Cl)cc1 | 65 to 67 °C |
| CC1(C)CC(N(C=O)CCCCCCN(C=O)C2CC(C)(C)NC(C)(C)C2)CC(C)(C)N1 | 155 °C |
| CCCCCC(=O)NC[C@H]1CNC(=O)O1 | 124 °C |
| O=C1N(O)CCC12CCOc1ccc(F)cc12 (configuration not stated) | 208 to 209 °C |
| CCN(CC)CCn1cc(C(=O)NCc2ccc(Cl)cc2)c(=O)c2cc(CCCO)sc21 | 111 to 114 °C |
| O=[N+]([O-])c1oc2ccc(CN3CCN(c4ccccc4)CC3)cc2c1-c1ccccc1 | 155 to 157 °C |
| CC(C)c1c(O)cc(/C=C/c2ccccc2)cc1O | 140 to 142 °C |
| CN1CCN(C2=Nc3ccccc3N(C=O)c3ccncc32)CC1 | 196 °C |
| CS(=O)(=O)OCCCCC1C(=O)Nc2ccc(F)cc21 (configuration not stated) | 106 to 108 °C |
| Cc1ccc(C)c(S(=O)(=O)n2c(CCCC(=O)O)cc3nc(Cl)ccc32)c1 | 106 to 117 °C |
| O=C(O)[C@H](Cc1ccccc1)Nc1c(NCc2ccccc2)c(=O)c1=O | 215 to 216 °C |
| CSC(=O)c1c(C(F)F)nc(C(F)(F)F)c(C(=O)SC)c1NC(C)C | 92 to 94 °C |
| CCOc1cc(C(F)(F)F)nc(N)n1 | 114 to 116 °C |
| COc1cccc2c(Nc3ccccc3C)c(C(=O)C(C)C)cnc12 | 116 to 118 °C |

| Structure (SMILES) | melting point |
| --- | --- |
| N#Cc1cccc(-n2cc(-c3ccccn3)cn2)n1 | 260 to 261 °C |
| CCOC(=O)c1ccc(-c2ccc(-c3ccccc3)cc2-c2ccc3c(c2)C(C)(C)CCC3(C)C)cc1O | < 70 °C |
| O=C(c1ccc(-c2nc(C(=O)O)co2)cc1)c1cccnc1 | 281 to 282 °C |
| COc1cc(OC)cc(N2Cc3cnc(SC)nc3N=C2N)c1 | 198 to 204 °C |
| Brc1ccc2oc3ccc(Br)cc3c2c1 | 226 °C |
| COc1cn(C(C)c2ccccc2)c(=O)o1 (configuration not stated) | 49 to 52 °C |
| CN(C(=O)O)c1cccc(-c2ccnc3c(C(=O)c4cccs4)cnn23)c1 | 215 to 217 °C |
| N#CCCCCCCCn1c(-c2ccccc2)nc(-c2ccccc2)c1-c1ccccc1 | 93 to 94 °C |
| CCOCc1nc2c(N)nc3cccnc3c2n1CCCCS(=O)(=O)NC | 148 to 150 °C |
| COc1ccc(CC=[N+]([O-])C(C)(C)C)cc1 | 90 to 91 °C |
| O=C1c2ccccc2C(=O)N1CCOc1cc(F)ccc1O | 172 °C |
| N#CC1(c2ccccc2)CCC2(CC1)OCCO2 | 108 to 110 °C |
| CN(C)C=C(C=O)c1ccc(C(F)(F)F)cc1 | 97 °C |
| CCOC(=O)C1(NC(C)=O)CC(C)(C)NC(C)(C)C1 | 108 to 109 °C |
| N[C@@H](Cc1ccccc1)C(=O)NCC(=O)Nc1ccc([N+](=O)[O-])cc1C(=O)c1ccccc1 | 144 to 146 °C |
| O=C1CCCN1C(=O)NCCCN1CC=C(c2ccc(Cl)c(Cl)c2)CC1 | 136 °C |
| Cc1nc(N2CCc3ccccc3CC2)c(C#N)c(=O)n1NC(=O)OC(C)(C)C | 150 to 152 °C |
| CCOCC(=O)N(c1c(C)c(C)cc2ccccc12)C(C)C(=O)OC (configuration not stated) | 96 to 108 °C |
| CC(C)c1cc(C(=O)O)c(N)c(C(C)C)c1 | 114 to 116 °C |
| N#CC1CN1C(=O)NC(=O)c1ccco1 (configuration not stated) | 148 to 150 °C |
| Cn1c(COc2ccc(CC3SC(=O)NC3=O)cc2)nc2ccc(Oc3cccc(NC(=O)Nc4ccccc4)c3)cc21 (configuration not stated) | 165 to 167 °C |
| O=C1CCNCCNC(=O)CCNCCN1 | 198 to 199 °C |
| CCC1(O)NC(=O)C=C1C (configuration not stated) | 182 to 186 °C |
| CC(C)(c1cc(F)cc([N+](=O)[O-])c1O)c1cc(Cl)cc([N+](=O)[O-])c1O | 160 °C |
| CSCCCC1(C(=S)N[C@@H](Cc2ccc(NC(=O)c3c(Cl)cccc3Cl)cc2)C(=O)O)CCC1 | 186 to 188 °C |
| Cc1cc([N+](=O)[O-])cc(C=O)c1O | 132 to 133 °C |
